Results from PubChem BioAssay AID1963425 (Molecular Pharmacology Branch, DTP, NCI, 2024).
Where “and” joins values, the source holds several entries; their conditions need not be identical. Identical values can stand only once. One block for each molecule: values may come before it.

System: 323965-272-R-J2-PDC complex spheroid growth, % test/control
Assay: Anticancer human tumor 323965-272-R-J2-PDC patient-derived pancreatic carcinoma cell line growth inhibition [Asc]
Details: for viability, T/C: stronger effect = lower value
In short: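 Tumor cells were grown as multicellular spheroids with stromal HUVEC and mesenchymal stem cells and treated singly or in combination. Concentrations fell in half-log steps from the clinical Cmax, or from 10 microM where none was known.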

[1] = curve of first compound, second compound 0.00316 µM
[2] = curve of first compound, second compound 0.01 µM
[3] = curve of first compound, second compound 0.0316 µM
[4] = curve of first compound, second compound 0.1 µM
[5] = curve of first compound, second compound 0.316 µM
[6] = curve of first compound, second compound 1 µM
[7] = second compound 0.00316 µM, first compound 0.0316 µM
[8] = second compound 0.00316 µM, first compound 0.1 µM
[9] = second compound 0.01 µM, first compound 0.0316 µM
[10] = second compound 0.01 µM, first compound 0.1 µM
[11] = second compound 0.0316 µM, first compound 0.0316 µM
[12] = second compound 0.0316 µM, first compound 0.1 µM
[13] = second compound 0.1 µM, first compound 0.0316 µM
[14] = second compound 0.1 µM, first compound 0.1 µM
[15] = second compound 0.316 µM, first compound 0.0316 µM
[16] = second compound 0.316 µM, first compound 0.1 µM
[17] = second compound 1 µM, first compound 0.0316 µM
[18] = second compound 1 µM, first compound 0.1 µM
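Note: compound exposure lasted 7 days starting three days after spheroid seeding.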
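Throughout, for viability, T/C: 100% = DMSO vehicle control wells with viability set relative to vehicle.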

IC50 (curve of first compound, second compound 0.00949 µM): > 0.3 µM
IC50 (curve of first compound, second compound 0.03 µM): > 0.3 µM
IC50 (curve of first compound, second compound 0.0949 µM): > 0.3 µM
IC50 (curve of first compound, second compound 0.3 µM): > 0.3 µM
IC50 (curve of first compound, second compound 0.949 µM): > 0.3 µM
IC50 (curve of first compound, second compound 3 µM): > 0.3 µM
SMILES: NC(=O)C(=Cn1cnc(-c2cc(C(F)(F)F)cc(C(F)(F)F)c2)n1)c1cncnc1 + CCN1C(C(=O)NC23CCC(C(=O)O)(CC2)CC3)C(c2cccc(Cl)c2F)C2(C(=O)Nc3cc(Cl)ccc32)C12CCCCC2
viability, T/C (second compound 0.00949 µM, first compound 0.000949 µM): 108%
viability, T/C (second compound 0.00949 µM, first compound 0.003 µM): 100%
viability, T/C (second compound 0.00949 µM, first compound 0.00949 µM): 98%
viability, T/C (second compound 0.00949 µM, first compound 0.03 µM): 105%
viability, T/C (second compound 0.00949 µM, first compound 0.0949 µM): 86.3%
viability, T/C (second compound 0.00949 µM, first compound 0.3 µM): 57.9%
viability, T/C (second compound 0.03 µM, first compound 0.000949 µM): 109%
viability, T/C (second compound 0.03 µM, first compound 0.003 µM): 105%
viability, T/C (second compound 0.03 µM, first compound 0.00949 µM): 96.8%
viability, T/C (second compound 0.03 µM, first compound 0.03 µM): 99.8%
viability, T/C (second compound 0.03 µM, first compound 0.0949 µM): 90%
viability, T/C (second compound 0.03 µM, first compound 0.3 µM): 68%
viability, T/C (second compound 0.0949 µM, first compound 0.000949 µM): 111%
viability, T/C (second compound 0.0949 µM, first compound 0.003 µM): 101%
viability, T/C (second compound 0.0949 µM, first compound 0.00949 µM): 109%
viability, T/C (second compound 0.0949 µM, first compound 0.03 µM): 100%
viability, T/C (second compound 0.0949 µM, first compound 0.0949 µM): 91.7%
viability, T/C (second compound 0.0949 µM, first compound 0.3 µM): 55.5%
viability, T/C (second compound 0.3 µM, first compound 0.000949 µM): 101%
viability, T/C (second compound 0.3 µM, first compound 0.003 µM): 103%
viability, T/C (second compound 0.3 µM, first compound 0.00949 µM): 101%
viability, T/C (second compound 0.3 µM, first compound 0.03 µM): 99%
viability, T/C (second compound 0.3 µM, first compound 0.0949 µM): 88.7%
viability, T/C (second compound 0.3 µM, first compound 0.3 µM): 55.2%
viability, T/C (second compound 0.949 µM, first compound 0.000949 µM): 103%
viability, T/C (second compound 0.949 µM, first compound 0.003 µM): 93.9%
viability, T/C (second compound 0.949 µM, first compound 0.00949 µM): 84.3%
viability, T/C (second compound 0.949 µM, first compound 0.03 µM): 87.7%
viability, T/C (second compound 0.949 µM, first compound 0.0949 µM): 85.7%
viability, T/C (second compound 0.949 µM, first compound 0.3 µM): 53.6%
viability, T/C (second compound 3 µM, first compound 0.000949 µM): 94%
viability, T/C (second compound 3 µM, first compound 0.003 µM): 101%
viability, T/C (second compound 3 µM, first compound 0.00949 µM): 89.5%
viability, T/C (second compound 3 µM, first compound 0.03 µM): 85.2%
viability, T/C (second compound 3 µM, first compound 0.0949 µM): 82.3%
viability, T/C (second compound 3 µM, first compound 0.3 µM): 53%

IC50 [1]: > 0.1 µM
IC50 [2]: > 0.1 µM
IC50 [3]: > 0.1 µM
IC50 [4]: > 0.1 µM
IC50 [5]: > 0.1 µM
IC50 [6]: > 0.1 µM
SMILES: NC1CCC(NC2CC2c2ccccc2)CC1 (stereo not drawn) + CNC(C)C(=O)NC1CN(S(=O)(=O)c2cccc(S(=O)(=O)N3CCC4CCC(C(=O)NC(c5ccccc5)c5ccccc5)N4C(=O)C(NC(=O)C(C)NC)C3)c2)CCC2CCC(C(=O)NC(c3ccccc3)c3ccccc3)N2C1=O
viability, T/C (second compound 0.00316 µM, first compound 0.000316 µM): 96.2%
viability, T/C (second compound 0.00316 µM, first compound 0.001 µM): 91.7%
viability, T/C (second compound 0.00316 µM, first compound 0.00316 µM): 104%
viability, T/C (second compound 0.00316 µM, first compound 0.01 µM): 97%
viability, T/C [7]: 97.6%
viability, T/C [8]: 94.2%
viability, T/C (second compound 0.01 µM, first compound 0.000316 µM): 97.6%
viability, T/C (second compound 0.01 µM, first compound 0.001 µM): 86.7%
viability, T/C (second compound 0.01 µM, first compound 0.00316 µM): 95.9%
viability, T/C (second compound 0.01 µM, first compound 0.01 µM): 101%
viability, T/C [9]: 99.3%
viability, T/C [10]: 90.5%
viability, T/C (second compound 0.0316 µM, first compound 0.000316 µM): 106%
viability, T/C (second compound 0.0316 µM, first compound 0.001 µM): 94.9%
viability, T/C (second compound 0.0316 µM, first compound 0.00316 µM): 91.5%
viability, T/C (second compound 0.0316 µM, first compound 0.01 µM): 99.3%
viability, T/C [11]: 97.2%
viability, T/C [12]: 97.1%
viability, T/C (second compound 0.1 µM, first compound 0.000316 µM): 95%
viability, T/C (second compound 0.1 µM, first compound 0.001 µM): 88.6%
viability, T/C (second compound 0.1 µM, first compound 0.00316 µM): 87.6%
viability, T/C (second compound 0.1 µM, first compound 0.01 µM): 85.3%
viability, T/C [13]: 96.1%
viability, T/C [14]: 96.7%
viability, T/C (second compound 0.316 µM, first compound 0.000316 µM): 109%
viability, T/C (second compound 0.316 µM, first compound 0.001 µM): 92%
viability, T/C (second compound 0.316 µM, first compound 0.00316 µM): 88.7%
viability, T/C (second compound 0.316 µM, first compound 0.01 µM): 97.5%
viability, T/C [15]: 95.9%
viability, T/C [16]: 91.2%
viability, T/C (second compound 1 µM, first compound 0.000316 µM): 93.5%
viability, T/C (second compound 1 µM, first compound 0.001 µM): 80.2%
viability, T/C (second compound 1 µM, first compound 0.00316 µM): 87%
viability, T/C (second compound 1 µM, first compound 0.01 µM): 87.3%
viability, T/C [17]: 109%
viability, T/C [18]: 85.2%

IC50 [1]: 3.55 µM
IC50 [2]: 3.55 µM
IC50 [3]: 3.7 µM
IC50 [4]: 3.45 µM
IC50 [5]: 3.72 µM
IC50 [6]: 3.38 µM
SMILES: C=C(F)C(=O)N1CCN(c2nc(OCC3CCCN3C)nc3c2CCN(c2cccc4cccc(Cl)c24)C3)CC1CC#N (stereo not drawn) + CNC(C)C(=O)NC1CN(S(=O)(=O)c2cccc(S(=O)(=O)N3CCC4CCC(C(=O)NC(c5ccccc5)c5ccccc5)N4C(=O)C(NC(=O)C(C)NC)C3)c2)CCC2CCC(C(=O)NC(c3ccccc3)c3ccccc3)N2C1=O
viability, T/C [7]: 54.3%
viability, T/C [8]: 48.5%
viability, T/C (second compound 0.00316 µM, first compound 0.316 µM): 50.5%
viability, T/C (second compound 0.00316 µM, first compound 1 µM): 56.1%
viability, T/C (second compound 0.00316 µM, first compound 3.16 µM): 67.9%
viability, T/C (second compound 0.00316 µM, first compound 10 µM): 0.23%
viability, T/C [9]: 62.3%
viability, T/C [10]: 44.2%
viability, T/C (second compound 0.01 µM, first compound 0.316 µM): 48.8%
viability, T/C (second compound 0.01 µM, first compound 1 µM): 56.6%
viability, T/C (second compound 0.01 µM, first compound 3.16 µM): 66.3%
viability, T/C (second compound 0.01 µM, first compound 10 µM): 0.24%
viability, T/C [11]: 55.8%
viability, T/C [12]: 54.8%
viability, T/C (second compound 0.0316 µM, first compound 0.316 µM): 47.1%
viability, T/C (second compound 0.0316 µM, first compound 1 µM): 55.4%
viability, T/C (second compound 0.0316 µM, first compound 3.16 µM): 76%
viability, T/C (second compound 0.0316 µM, first compound 10 µM): 0.21%
viability, T/C [13]: 52%
viability, T/C [14]: 46.7%
viability, T/C (second compound 0.1 µM, first compound 0.316 µM): 48.5%
viability, T/C (second compound 0.1 µM, first compound 1 µM): 53.4%
viability, T/C (second compound 0.1 µM, first compound 3.16 µM): 69.9%
viability, T/C (second compound 0.1 µM, first compound 10 µM): 0.25%
viability, T/C [15]: 55.5%
viability, T/C [16]: 53.6%
viability, T/C (second compound 0.316 µM, first compound 0.316 µM): 59.5%
viability, T/C (second compound 0.316 µM, first compound 1 µM): 53.8%
viability, T/C (second compound 0.316 µM, first compound 3.16 µM): 68.3%
viability, T/C (second compound 0.316 µM, first compound 10 µM): 0.21%
viability, T/C [17]: 56.8%
viability, T/C [18]: 49.1%
viability, T/C (second compound 1 µM, first compound 0.316 µM): 38.6%
viability, T/C (second compound 1 µM, first compound 1 µM): 56%
viability, T/C (second compound 1 µM, first compound 3.16 µM): 65%
viability, T/C (second compound 1 µM, first compound 10 µM): 0.22%

IC50 (curve of compound): > 10 µM
SMILES: C=CC(=O)N1CCN(c2nc(=O)n(-c3c(C)ccnc3C(C)C)c3nc(-c4c(O)cccc4F)c(F)cc23)C(C)C1 (stereo not drawn)
viability, T/C (compound 0.0316 µM): 68.7% and 71.9% and 67.7%
viability, T/C (compound 0.1 µM): 56.3% and 59.3% and 71.6%
viability, T/C (compound 0.316 µM): 58.4% and 59% and 65.9%
viability, T/C (compound 1 µM): 57% and 64.3% and 67.5%
viability, T/C (compound 3.16 µM): 66.4% and 72.1% and 67.5%
viability, T/C (compound 10 µM): 64.8% and 65.6% and 61.1%
